Counter-ions that a name gives are not always drawn. Like-named read-outs stand apart in the source and are kept apart here.
How the values were obtained:
Assay type in all cases: cell-based
[1] = test system: K. pneumoniae BAA-1898 (TEM-1, SHV-11, SHV-12, KPC-2); experiment: MIC of compounds and synergy with ceftazidime (broth microdilution); details: for MIC, combination of CAZ and compounds of the invention: MIC of ceftazidime with compound fixed at 4 μg/mL; for MIC: Klebsiella pneumoniae
Description: (§1) Briefly, compounds alone according to the invention were prepared in DMSO and spotted (2 μL each) on sterile polystyrene plates (Corning, 3788). […] Microplates were incubated for 16-20 h at 35° C. in ambient air. The MIC of the compounds was defined as the lowest concentration of said compounds that prevented bacterial growth as read by visual inspection.

[2] = test system: E. coli 131119 (TEM-1, OXA-48); experiment: as above; details: for MIC: Escherichia coli
Description: as §1

[3] = test system: P. aeruginosa CIP107051 (TEM-24); experiment: as above; details: for MIC, combination of CAZ and compounds of the invention: MIC of ceftazidime with compound fixed at 4 μg/mL; for MIC: Pseudomonas aeruginosa
Description: as §1

[4] = test system: E. cloacae P99 (Derepressed ampC); experiment: as above; details: strain P99 (E. cloacae); for MIC, combination of CAZ and compounds of the invention: MIC of ceftazidime with compound fixed at 4 μg/mL
Description: as §1

[5] = test system: K. pneumoniae 6299 (TEM-1, SHV-11, OXA-163); experiment: as above; details: for MIC, combination of CAZ and compounds of the invention: MIC of ceftazidime with compound fixed at 4 μg/mL; for MIC: Klebsiella pneumoniae
Description: as §1

[6] = test system: P. aeruginosa CIP105250 (OXA-15); experiment: as above; details: for MIC, combination of CAZ and compounds of the invention: MIC of ceftazidime with compound fixed at 4 μg/mL; for MIC: Pseudomonas aeruginosa
Description: as §1

E. coli RGN238 (OXA-1) = experiment: as above; details: for MIC: Escherichia coli
Description: as §1

[7] = test system: E. coli 190317 (TEM-1, SHV-12, CTX-M-15, OXA-1); experiment: microbe, parasite or virus in culture
Description: as §1

[8] = test system: P. aeruginosa UFR35 (OXA-23); experiment: MIC of compounds and synergy with ceftazidime (broth microdilution); details: Pseudomonas aeruginosa, read-out: MIC of CAZ
Description: as §1

[9] = test system: P. aeruginosa UFR92 (Derepressed ampC, OprD-); experiment: as above; details: Pseudomonas aeruginosa, read-out: MIC of CAZ
Description: as §1

[10] = test system: P. aeruginosa UFR48 (VIM-2); experiment: as above; details: Pseudomonas aeruginosa, read-out: MIC of CAZ
Description: as §1

[11] = test system: P. aeruginosa UFR90 (Derepressed ampC, OprD-); experiment: as above; details: Pseudomonas aeruginosa, read-out: MIC of CAZ
Description: as §1

[12] = test system: E. coli UFR74 (SHV-1, DHA-1); experiment: as above; details: Escherichia coli, read-out: MIC of CAZ
Description: as §1

[13] = test system: K. pneumoniae UFR77 (CMY-2); experiment: as above; details: Klebsiella pneumoniae, read-out: MIC of CAZ
Description: as §1

[14] = strain BAA-1898 (K. pneumoniae)
[15] = strain CIP107051 (P. aeruginosa)
[16] = strain CIP105250 (P. aeruginosa)

In the case of `COC[C@H]1C=C(c2cnco2)[C@@H]2CN1C(=O)N2OS(=O)(=O)[O-].[Na+]` (relative stereo) [Example 4], the “MIC, combination of CAZ and compounds of the invention” value (“MIC, combination” for short) [1, 14] is reported as 64 µg/mL, the “MIC compounds of the invention alone” value [1, 14] is reported as greater than 32 µg/mL and the “MIC compounds of the invention alone” value ([2]; strain 131119 (E. coli)) is reported as greater than 32 µg/mL. For the same compound, the “MIC, combination” value [3, 15] was 64 µg/mL, the “MIC compounds of the invention alone” value [3, 15] was greater than 32 µg/mL and the “MIC, combination” value [4] was 64 µg/mL. The “MIC compounds of the invention alone” value [4] was greater than 32 µg/mL, the “MIC, combination” value ([5]; strain 6299 (K. pneumoniae)) was 128 µg/mL and the “MIC compounds of the invention alone” value ([5]; strain 6299 (K. pneumoniae)) was greater than 32 µg/mL. For the same compound, the “MIC, combination” value [6, 16] was 128 µg/mL, the “MIC compounds of the invention alone” value [6, 16] was greater than 32 µg/mL and the “MIC compounds of the invention alone” value (E. coli RGN238 (OXA-1); strain RGN238 (E. coli)) was greater than 32 µg/mL. For the same compound, the “MIC, combination” value ([7]; MIC of ceftazidime with compound fixed at 4 μg/mL, strain 190317 (E. coli)) was 4 µg/mL and the “MIC compounds of the invention alone” value ([7]; strain 190317 (E. coli)) was greater than 32 µg/mL.
`CC(C)(O/N=C(\C(=O)N[C@@H]1C(=O)N2C(C(=O)[O-])=C(C[n+]3ccccc3)CS[C@H]12)c1csc(N)n1)C(=O)O` [CAZ, ceftazidime, reference compound] was tested, and the MIC [8] was 2 µg/mL, the MIC ([1]; BAA1898, read-out: MIC of CAZ) was 256 µg/mL and the MIC ([2]; read-out: MIC of CAZ) was 0.5 µg/mL. It also gave an MIC [9] of 32 µg/mL, an MIC [10] of 256 µg/mL and an MIC ([3]; CIP107051, read-out: MIC of CAZ) of 256 µg/mL. It also gave an MIC ([5]; read-out: MIC of CAZ) of 256 µg/mL, an MIC [11] of 64 µg/mL and an MIC ([6]; CIP105250, read-out: MIC of CAZ) of 256 µg/mL. For the same compound, the MIC [12] was 64 µg/mL, the MIC (E. coli RGN238 (OXA-1); read-out: MIC of CAZ) was 0.5 µg/mL and the MIC [13] was 64 µg/mL.
`N=C(N)NC[C@@H]1C(c2nccs2)=C[C@@H]2CN1C(=O)N2OS(=O)(=O)O` [Example 7, [(2S,5R)-2-(guanidinomethyl)-7-oxo-3-thiazol-2-yl-1,6-diazabicyclo[3.2.1]oct-3-en-6-yl] hydrogen sulfate] was tested, and the MIC ([1]; BAA1898, strain BAA-1898 (K. pneumoniae), read-out: MIC compounds of the invention alone) was greater than 32 µg/mL, the “MIC, combination” value [1, 14] was no more than 0.125 µg/mL and the MIC ([2]; 18 h, strain 131119 (E. coli), read-out: MIC compounds of the invention alone) was 0.031 µg/mL. The “MIC, combination” value [3, 15] was 1 µg/mL, the MIC ([3]; 18 h, strain CIP107051 (P. aeruginosa), read-out: MIC compounds of the invention alone) was 8 µg/mL and the MIC ([4]; Enterobacter cloacae, 18 h, read-out: MIC compounds of the invention alone) was 0.031 µg/mL. For the same compound, the “MIC, combination” value [4] was less than 0.125 µg/mL, the MIC ([5]; 18 h, strain 6299 (K. pneumoniae), read-out: MIC compounds of the invention alone) was greater than 32 µg/mL and the “MIC, combination” value ([5]; strain 6299 (K. pneumoniae)) was 2 µg/mL. The “MIC, combination” value [6, 16] was 32 µg/mL, the MIC ([6]; 18 h, strain CIP105250 (P. aeruginosa), read-out: MIC compounds of the invention alone) was 32 µg/mL and the MIC (E. coli RGN238 (OXA-1); 18 h, strain RGN238 (E. coli), read-out: MIC compounds of the invention alone) was 16 µg/mL. For the same compound, the MIC ([7]; Escherichia coli, 18 h, read-out: MIC compounds of the invention alone) was 0.063 µg/mL.
